Values after ≈ are worked out from the molar mass of the structure shown.

In one test the test system is Micrococcus luteus. As to the kind of experiment: MIC liquid tube assay (antibiotic activity). It is filed as cell-based. The note with it: Micrococcus luteus; liquid tube assay in nutrient broth, 37° C., growth observed after 24 and 48 hours; MIC = last concentration where growth inhibited; read-out: MIC. On the procedure:
Micrococcus luteus from stock was streaked on a nutrient agar plate to confirm colony morpbiology, colour and purity. After 24 hours incubation at 37° C. an isolated colony is picked and inoculated into 10 ml of nutrient broth. This is incubated overnight at 37° C. and is subsequently used as the inoculum. 10 mg of each of the test compounds is weighed and dissolved in 10 ml of […] methanol in sterile 20 ml universal containers. This is then diluted with ringers buffer solution to give a concentration of 1 mg/ml. Quantitation of activity is determined using an MIC ([…]) liquid tube assay. For each test substance the following concentrations are set up: 10 μg/ml, 5 μg/ml, 1 μg/ml, 0.5 μg/ml, 0.1 μg/ml, 0.05 μg/ml and 0.01 μg/ml. Each contained nutrient broth and 0.1 ml of overnight culture of Micrococcus luteus. The tubes were incubated at 37° C. and observed for growth after 24 hours and 48 hours. Growth is assessed by dense turbidity, optical density at 660 nm using a spectrophotometer or clarity. The MIC is the last concentration where growth inhibited.
With `CC[C@H]1OC(=O)[C@H](C)[C@@H](O[C@H]2C[C@@](C)(OC)[C@@H](O)[C@H](C)O2)[C@H](C)[C@@H](O[C@@H]2O[C@H](C)C[C@H](N(C)C)[C@H]2O)[C@](C)(OC)C[C@@H](C)C(=O)[C@H](C)[C@@H](O)[C@]1(C)O` [Clarithromycin], the MIC was not above 0.01 µg/mL. As for `CCC(=O)O[C@H]1[C@H](O[C@@H]2[C@@H](C)[C@H](O[C@H]3C[C@@](C)(OC)[C@@H](O)[C@H](C)O3)[C@@H](C)C(=O)O[C@H](CC)[C@@](C)(O)[C@H](O)[C@@H](C)C(=O)[C@H](C)C[C@@]2(C)O)O[C@H](C)C[C@@H]1N(C)C` [Erythromycin-propionate, Erythromycin Propionate, reference compound], the MIC fell in the range of 0.01 to 0.05 µg/mL (≈ 0.0127 to 0.0633 µM).

The test is the same for the next values; noted with them: liquid tube assay in nutrient broth, 37° C., growth observed after 24 and 48 hours; MIC = last concentration where growth inhibited.
In the case of “Erythromycin Propionate-N-Acetylcysteine [1:1.8]-Adduct [Erythromycin-N-acetylcysteinate [1:1.8]]”, the minimum inhibitory concentration (MIC) entry is “≦0.01 μg/ml”. As to “Erythromycin Propionate-N-Acetylcysteine-[1:1]-Salt [Erythromycin-N-acetylcysteinate [1:1]]”, the MIC is 0.01 to 0.05 µg/mL. Molecule “Clarithromycin-N-Acetylcysteinate-[1:4]-Salt [Clarithromycin-N-acetylcysteinate [1:4]]” yielded a minimum inhibitory concentration (MIC) of 0.01 to 0.05 µg/mL. Same read-out and setting: then `CC(=O)N[C@@H](CS)C(=O)O.CC[C@H]1OC(=O)[C@H](C)[C@@H](O[C@H]2C[C@@](C)(OC)[C@@H](O)[C@H](C)O2)[C@H](C)[C@@H](O[C@@H]2O[C@H](C)C[C@H](N(C)C)[C@H]2O)[C@](C)(OC)C[C@@H](C)C(=O)[C@H](C)[C@@H](O)[C@]1(C)O` [Clarithromycin-N-acetylcysteinate [1:1], Clarithromycin-N-Acetylcysteinate-[1:1]-Salt], with “≦0.01 μg/ml”; and “Erythromycin Propionate-N-Acetylcysteine [1:4]-Adduct [Erythromycin-N-acetylcysteinate [1:4]]”, with 0.05 to 0.1 µg/mL.

(Values after patent US6599885B2, “Derivatives of erythromycin, clarithromycin, roxithromycin or azithromycin with antibiotic and mucolytic activity” (Russinsky Limited, priority 1998, dated 2003).)
